Source: patent publication US8795632B2, “Disease animal model for chronic pain” (Astellas Pharma Inc., priority 2008, dated 2014)

Legend:
[1] = test system: dopamine, norepinephrine, serotonin, DOPAC, MHPG and 5-HIAA in the spinal cord, thalamus and prefrontal cortex; assay: Amounts of dopamine, norepinephrine, serotonin, DOPAC, MHPG and 5-HIAA in spinal cord, thalamus and prefrontal cortex after reserpine single administration (HPLC-ECD); type: in vivo, rat; conditions: reserpine 3 mg/kg single s.c.
Method: Male Sprague-Dawley rats (7 weeks old, Japan SLC, Hamamatsu, Japan) were used as the animal.
A total of 72 rats were divided into 12 test schedules (collection of samples before the administration, 2, 4, 8 and 24 hours after the administration and 2, 3, 5, 7, 10, 14 and 21 days thereafter) and further divided each of them into a vehicle (0.5% acetic acid aqueous solution) administration group and a reserpine 3 mg/kg administration group, to 3 rats per group. As shown in Example 5, the vehicle or 3 mg/kg of reserpine was administered subcutaneously only once to each rat, and the brain and spinal cord were quickly collected after 2, 4, 8 or 24 hours or 2, 3, 5, 7, 10, 14 or 21 days of the administration. The thalamus and prefrontal cortex were separated from the brain on an ice-cold dish. Regarding the sampling before administration, samples were collected before beginning of the administration of the vehicle or reserpine. The collected samples were quickly frozen and stored at −80° C. until their use in the measurements. On the day of the measurement, tissues of respective samples were subjected to wet weight measurement, homogenized in 0.2 M perchloric acid/0.1 mM EDTA-2Na solution using an ultrasonic homogenizer. After centrifugation at 15,000 g and at 4° C. for 15 minutes, the supernatant was adjusted to pH 3.5 using sodium acetate and filtered using a filter. Amounts of dopamine, norepinephrine, serotonin, DOPAC, MHPG and 5-HIAA in these samples were measured using a high performance liquid chromatography (column: SC-50DS 3.0, 150 mm, Eicom Co., Ltd., Kyoto, Japan, mobile phase composition: 0.1 M sodium acetate buffer, 0.1 M citrate buffer, pH 3.5, 5 mg/l EDTA-2Na, 200 mg/l sodium octane sulfonic acid, 16% methanol) and an electrochemical detector (ECD-300, Eicom Co., Ltd., Kyoto, Japan). The measurement was carried out under conditions of flow rate 0.5 ml/min, applied voltage 750 mV and 25° C. Amounts of dopamine, norepinephrine, serotonin, DOPAC, MHPG and 5-HIAA in the samples were quantified by comparing sample peak areas of respective standards measured on the same day of the sample measurement.
All of the measured values were expressed as average value±standard error in the graphs, and unit of the measured values was set to ng/g tissue wet weight. Statistical difference of the measured values between the reserpine administration group and the vehicle administration group in each test schedule was carried out by the two-way analysis of variance and the Bonferroni method. Probability value (P) of less than 5% was judged as statistically significant (P<0.05 was expressed as * in the graphs).

[2] = test system: Sprague-Dawley rats; assay: Forced swimming test (immobility time) after repeated administration of reserpine; type: in vivo, rat; conditions: reserpine 1 mg/kg s.c. once a day for 3 days
Method: Male Sprague-Dawley rats (7 weeks old, Japan SLC, Hamamatsu, Japan) were used as the animal. The forced swimming test was carried out by modifying the method of Porsolt et al. (1977) in the following manner. A soft wire equipped with a magnet (1 mm in diameter, 3 mm in length) was attached to both forelimbs of each animal, and the animal was allowed to swim in a cylindrical plastic water bath (20 cm in diameter, 45 cm in height) filled with water (24±1° C.) to a depth of 30 cm. In this test, the immobility time of each animal was measured using a forced swimming automatic measuring device (MicroAct Scratching Test version 1.06; Neuroscience, Tokyo, Japan) which detects movement of the forelimbs equipped with the magnet, through a coil around the cylinder.
Influence of reserpine upon the immobility time in the forced swimming test was examined in accordance with the following protocol. […] All of the measured values were expressed as average value±standard error. Statistical difference of the measured values between the reserpine administration groups and the vehicle administration group in each test schedule was carried out by the Student's t-test. Probability value (P) of less than 5% was judged as statistically significant (P<0.05 was expressed as * in the graphs).

[3] = after 2, 4, 8 and 24 hours and 2, 3, 5, 7, 10, 14 and 21 days

SMILES: COC(=O)[C@H]1[C@H]2C[C@@H]3c4[nH]c5cc(OC)ccc5c4CCN3C[C@H]2C[C@@H](OC(=O)c2cc(OC)c(OC)c(OC)c2)[C@@H]1OC [reserpine]
- amount of DOPAC in the prefrontal cortex ([1]; after 2, 3, 5, 7, 10 and 14 days): significantly reduced
- amount of 5-HIAA in the thalamus ([1]; after 2, 4, 8 and 24 hours): significantly increased
- amount of DOPAC in the spinal cord ([1]; after 2, 4, 8 and 24 hours): significantly increased
- amount of dopamine in the spinal cord [1, 3]: significantly reduced
- amount of dopamine in the thalamus [1, 3]: significantly reduced
- amount of norepinephrine in the prefrontal cortex [1, 3]: significantly reduced
- amount of norepinephrine in the spinal cord [1, 3]: significantly reduced
- amount of norepinephrine in the thalamus [1, 3]: significantly reduced
- amount of serotonin in the spinal cord [1, 3]: significantly reduced
- amount of dopamine in the prefrontal cortex ([1]; after 2, 4, 8 and 24 hours and 2, 3, 5, 7, 10 and 14 days): significantly reduced
- amount of serotonin in the prefrontal cortex ([1]; after 2, 4, 8 and 24 hours and 2, 3, 5, 7 and 10 days): significantly reduced
- amount of 5-HIAA in the spinal cord ([1]; after 4, 8, 24 hours and 2 days): significantly increased
- amount of serotonin in the thalamus ([1]; after 8 and 24 hours and 3, 5, 7 and 10 days): significantly reduced
- amount of MHPG in the prefrontal cortex ([1]; after 4 hours and 7 days): significantly reduced
- amount of MHPG in the spinal cord ([1]; after 4 hours and 7 days): significantly reduced
- amount of 5-HIAA in the prefrontal cortex ([1]; after 8 hours and 2, 3, 5, 7, 10, 14 and 21 days): significantly reduced
- amount of DOPAC in the spinal cord ([1]; after 2 days and later): did not significantly change
- amount of DOPAC in the thalamus ([1]; all time points): did not significantly change
- amount of MHPG in the thalamus ([1]; all time points): did not significantly change
- amount of 5-HIAA in the thalamus ([1]; in and after 2 days): no significant difference
- amount of 5-HIAA in the spinal cord ([1]; in and after 3 days): did not significantly change
- amount of DOPAC in the prefrontal cortex ([1]; within 24 hours after the administration): did not significantly change
- immobility time in forced swimming test vs vehicle administration group ([2]; after 3, 5, 7 and 14 days of the final administration (P=0.0007, P=0.004, P<0.0001, P=0.0008)): significant increase
- immobility time in forced swimming test vs vehicle administration group ([2]; after 1 day of the final administration (P=0.625, Student's t-test)): Significant increase in the immobility time by the reserpine administration was not found
